This is an account of results in US6548270B1, “DNA encoding human acid-sensing ion channel BNaC4 (ASIC4)” (Ortho-McNeil Pharmaceutical, Inc., priority 2000, dated 2003).

One assay concerns the target T1, Rat ASIC3 (Rattus norvegicus, UniProt O35240).
T1 sequence (O35240 1-533): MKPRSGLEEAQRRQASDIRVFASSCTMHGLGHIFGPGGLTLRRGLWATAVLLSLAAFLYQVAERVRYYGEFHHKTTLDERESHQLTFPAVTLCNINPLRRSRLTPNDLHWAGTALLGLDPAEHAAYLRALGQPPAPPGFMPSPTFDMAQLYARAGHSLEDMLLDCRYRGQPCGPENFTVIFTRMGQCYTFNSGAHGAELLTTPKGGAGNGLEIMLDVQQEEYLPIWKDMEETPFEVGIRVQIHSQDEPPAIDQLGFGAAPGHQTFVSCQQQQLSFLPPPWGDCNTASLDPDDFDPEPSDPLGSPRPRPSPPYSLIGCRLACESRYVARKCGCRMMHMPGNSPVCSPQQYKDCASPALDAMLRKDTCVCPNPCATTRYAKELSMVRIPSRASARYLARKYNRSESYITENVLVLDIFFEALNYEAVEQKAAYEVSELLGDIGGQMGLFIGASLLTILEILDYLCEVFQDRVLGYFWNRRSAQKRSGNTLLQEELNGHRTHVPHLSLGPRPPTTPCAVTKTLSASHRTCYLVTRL
Particulars: cited from earlier work.

A further assay concerns the target T2, human BNaC4 (Homo sapiens, UniProt Q96FT7).
T2 sequence (Q96FT7 1-539): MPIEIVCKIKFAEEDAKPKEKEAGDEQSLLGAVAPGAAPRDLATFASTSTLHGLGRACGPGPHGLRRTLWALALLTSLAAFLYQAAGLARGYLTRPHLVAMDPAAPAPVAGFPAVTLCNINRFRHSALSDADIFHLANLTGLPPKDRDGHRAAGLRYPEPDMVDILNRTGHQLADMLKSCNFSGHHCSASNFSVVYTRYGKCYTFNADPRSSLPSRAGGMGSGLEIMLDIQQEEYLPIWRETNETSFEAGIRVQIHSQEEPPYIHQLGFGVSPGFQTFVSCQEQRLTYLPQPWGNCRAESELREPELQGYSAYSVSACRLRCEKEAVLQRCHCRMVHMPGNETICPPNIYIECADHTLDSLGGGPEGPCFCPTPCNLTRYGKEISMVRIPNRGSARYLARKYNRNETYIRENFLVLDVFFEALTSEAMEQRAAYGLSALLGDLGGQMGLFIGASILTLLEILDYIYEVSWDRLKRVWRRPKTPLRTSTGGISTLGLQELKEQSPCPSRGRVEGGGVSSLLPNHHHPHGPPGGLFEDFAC
Description: pH 4.5-elicited current in HEK293 cells transiently expressing human BNaC4 (whole cell patch clamp). Format: cell-based. Further details: achieved by transfection of full-length human BNaC4 cDNA into a mammalian host cell; expressed in transfected cells; host or cells: HEK293, transient co-transfection of phBNaC4 (pCI Neo) and pEGFP. The conditions noted are these: 500 uM amiloride; HEK293 cells transfected with hBNaC4; n=3. As to the method: Human HEK293 cells were transfected with human BNaC4 (phBNaC4) together with the pEGFP vector (Clontech). Transient transfections 2 μg of phBNAC4 together with 1 μg pEGFP per 10^6 cells per 100 mm dish are performed using the Effectene transfection kit (Quiagen; 301425). Two to three days after transfection, cells are plated onto 12 mm round coverslips and maintained in growth media overnight. After one day, wells were tested for their whole cell response to application of low pH from nearby puffer pipettes using whole cell voltage clamp. Cells expressing GFP were tested (GFP-positive cells). Transfections with vector alone with GFP were used as controls (GFP-positive). […] The standard physiological saline (“Tyrodes”) contained: 130 mM NaCl, 4 mM KCl, 1 mM CaCl2, 1.2 mM MgCl2, and 10 mM hemi-Na-HEPES (pH 7.3, 295-300 mOsm as measured using a Wescor 5500 vapor-pressure (Wescor, Inc., Logan, Utah). Recording electrodes were fabricated from borosilicate capillary tubing (R6; Garner Glass, Claremont, Calif.), the tips are coated with dental periphery wax (Miles Laboratories, South Bend, Ind.), and have resistances of 1-2 MΩ when containing intracellular saline: 100 mM K-gluconate, 25 mM KCl, 0.483 mM CaCl2, 3 mM MgCl2, 10 mM hemi-Na-HEPES and 1 mM K4-BAPTA (100 nM free Ca^+2); pH 7.4, with dextrose added to achieve 290 mOsm). […]

For `N=C(N)NC(=O)c1nc(Cl)c(N)nc1N` [amiloride], at Rat ASIC3 (rat ASIC3 fast component, read-out: Amiloride sensitivity, K0.5, fast component), the IC50 is around 60 µM. Besides, the “effect of amiloride on slow component” value on Rat ASIC3 (rat ASIC3 slow component) is “potentiated by amiloride (Waldmann”. Further, on human BNaC4, the “block of the pH 4.5 effect (current elicited by pH 4.5)” value is given as 98+/−2%.
